According to US20260374766A1, “METHODS FOR TREATING CANCER” (Antares Therapeutics, Inc., priority 2022, published 2026):
Where two headings read alike, the source gives them in different places.

Experiments:
[1] = biological target: T1, p53 Y220C mutant protein (amino acid residues 94-293) (Homo sapiens, UniProt P04637, Y220C); experiment: Surface Plasmon Resonance (SPR) assay, Kd_kinetic; assay type: binding; settings: read-out: SPR P53 Y220C KD kinetic
T1 construct: p53 Y220C mutant protein (amino acid residues 94-293)
Method in brief: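 Temperature held at 16 or 20 °C during Biacore 8K runs. Buffer: 50 mM Tris, pH 7.5, 100 mM NaCl, 1 mM DTT, 0.01% Brij35, 0.05% Tween-20, 1% DMSO.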

[2] = biological target: T1, p53 Y220C mutant protein (amino acid residues 94-293); experiment: Thermal Shift Assay (TSA), dTM; assay type: binding; settings: thermal shift; for ΔTm at 10 µM: 10 uM compound, read-out: TSA P53 Y220C dTM (10 uM); for ΔTm at 100 µM: 100 uM compound, read-out: TSA P53 Y220C dTM (100 uM)
Method in brief: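 TM is derived by fitting Sypro Orange melt curves (30 °C to 50 °C, 0.03 °C/second) to a Boltzmann two-state model. Beforehand, 5 μM p53 Y220C (94-293) sits with 10 μM or 100 μM compound for 3 hours at 20 °C in HEPES pH7.4 buffer containing 100 mM NaCl and 1% DMSO.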

p53 Y220C = p53 Y220C (Homo sapiens, UniProt P04637, Y220C); experiment: Luciferase Reporter Assay (Luc), p53 response element, NClH1299 cells with inducible p53 Y220C; assay type: cell-based; settings: luciferase reporter, NClH1299 inducible p53 Y220C, 6 hour; for Emax: 10 uM tool compound as positive control; for AC50: read-out: Luc P53 Y220C AC50
Method in brief: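 Doxycycline (0.5 ug/mL, 24 h) induces the mutant before a 6-hour compound treatment. Reporter activity is then quantified by One-Glo luminescence.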

NUGC3 p53 Y220C = experiment: Cell Proliferation Assay (CellTiter-Glo, CTG), NUGC3 p53 Y220C; assay type: cell-based; settings: Homo sapiens, NUGC-3, 120 h, CellTiter-Glo, NUGC3 p53 Y220C, 5 days
Method in brief: (§1)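 NClH1299 lines stably transduced with Tet-inducible p53 Y220C or R273H, plus NUGC3, were treated with compound for 5 days at 250-500 cells/well. IC50 derived from CellTiter-Glo luminescent signal after 10 min room-temperature incubation.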

H1299 p53 Y220C = experiment: Cell Proliferation Assay (CellTiter-Glo, CTG), H1299 p53 Y220C (NClH1299-inducible p53 Y220C); assay type: cell-based; settings: Homo sapiens, NCI-H1299, 120 h, CellTiter-Glo, H1299 p53 Y220C, 5 days
Method in brief: as §1

H1299 p53 R273H = experiment: Cell Proliferation Assay (CellTiter-Glo, CTG), H1299 p53 R273H (NClH1299-inducible p53 R273H); assay type: cell-based; settings: Homo sapiens, NCI-H1299, 120 h, CellTiter-Glo, H1299 p53 R273H, 5 days
Method in brief: as §1

SMILES | Kd ([1]; SPR, kinetic KD, p53 Y220C) | ΔTm at 10 µM [2] | Emax (p53 Y220C) | AC50 (p53 Y220C) | IC50 (H1299 p53 Y220C) | IC50 (H1299 p53 R273H) | ΔTm at 100 µM [2] | Kd [1] | IC50 (NUGC3 p53 Y220C)
CNC(=O)c1ccc(NCC#Cc2cc3c(N[C@@H]4CCN(C)C[C@@H]4F)cccn3c2SC(F)(F)F)c(OC)c1 [Example 126, 4-{[3-(8-{[(3S,4R)-3-fluoro-1-methylpiperidin-4-yl]amino}-3-[(trifluoromethyl)sulfanyl]indolizin-2-yl)prop-2-yn-1-yl]amino}-3-methoxy-N-methylbenzamide] | < 10 nM | ≥ 10 °C | > 90% | < 750 nM | < 750 nM | 8000 to 10000 nM | – | – | < 750 nM
CCOc1cc(C(=O)NC)ccc1NCC#Cc1nc2c(N[C@@H]3CCN(C)C[C@@H]3F)cccn2c1SC(F)(F)F [Example 127] | < 10 nM | ≥ 10 °C | 80 to 90% | < 750 nM | < 750 nM | 8000 to 10000 nM | ≥ 10 °C | – | < 750 nM
COc1cc2n[nH]cc2cc1NCC#Cc1nc2c(N[C@@H]3CCN(C)C[C@@H]3F)cccn2c1SC(F)(F)F [Example 128] | < 10 nM | ≥ 10 °C | 80 to 90% | < 750 nM | 750 to 1500 nM | < 5000 nM | ≥ 10 °C | – | 750 to 1500 nM
CNC(=O)c1ccc(NCC#Cc2nc3c(NC4CCN(C)CC4)cccn3c2SC(F)(F)F)c(OC)c1 [Example 129] | < 10 nM | ≥ 10 °C | 80 to 90% | < 750 nM | < 750 nM | 5000 to 8000 nM | ≥ 10 °C | – | < 750 nM
CNC(=O)c1ccc(NCC#Cc2nc3c(N[C@H]4C[C@@H]5CC[C@H]([C@H]4F)N5C)cccn3c2SC(F)(F)F)c(OC)c1 [Example 130] | < 10 nM | ≥ 10 °C | 70 to 80% | < 750 nM | < 750 nM | 5000 to 8000 nM | ≥ 10 °C | – | < 750 nM
COc1cc(S(C)(=O)=O)ccc1NCC#Cc1nc2c(N[C@@H]3C[C@H]4CC[C@H](N4)[C@@H]3F)cccn2c1SC(F)(F)F [Example 131] | < 10 nM | ≥ 10 °C | 70 to 80% | < 750 nM | < 750 nM | 5000 to 8000 nM | ≥ 10 °C | – | < 750 nM
CNC(=O)c1cnc(NCC#Cc2nc3c(N[C@@H]4CCN(C)C[C@@H]4F)cccn3c2SC(F)(F)F)c(OC)c1 [Example 136] | < 10 nM | 5 to 10 °C | 70 to 80% | 1500 to 3000 nM | > 3000 nM | 8000 to 10000 nM | ≥ 10 °C | – | > 3000 nM
CNC(=O)c1cnc(OC)c(NCC#Cc2nc3c(N[C@@H]4CCN(C)C[C@@H]4F)cccn3c2SC(F)(F)F)c1 [Example 141] | < 10 nM | ≥ 10 °C | 80 to 90% | < 750 nM | < 750 nM | ≥ 10000 nM | ≥ 10 °C | – | < 750 nM
CNC(=O)c1ccc(NCC#Cc2nc3c(N[C@@H]4CN(C)CC[C@@H]4F)cccn3c2SC(F)(F)F)c(OC)c1 [Example 146] | < 10 nM | ≥ 10 °C | 70 to 80% | < 750 nM | < 750 nM | 5000 to 8000 nM | ≥ 10 °C | – | < 750 nM
CNC(=O)c1ccc(NCC#Cc2nc3c(N[C@H]4CN(C)CC[C@@H]4F)cccn3c2SC(F)(F)F)c(OC)c1 [Example 147] | < 10 nM | ≥ 10 °C | > 90% | < 750 nM | < 750 nM | 8000 to 10000 nM | ≥ 10 °C | – | < 750 nM
CNC(=O)c1cc(NCC#Cc2nc3c(N[C@@H]4CCN(C)C[C@@H]4F)cccn3c2SC(F)(F)F)c(OC)cn1 [Example 148] | < 10 nM | ≥ 10 °C | 70 to 80% | < 750 nM | < 750 nM | ≥ 10000 nM | ≥ 10 °C | – | < 750 nM
CNC(=O)c1cccc(NCC#Cc2nc3c(N[C@@H]4CCN(C)C[C@@H]4F)cccn3c2SC(F)(F)F)c1 [Example 149] | – | ≥ 10 °C | 80 to 90% | < 750 nM | < 750 nM | ≥ 10000 nM | ≥ 10 °C | < 10 nM | < 750 nM
COc1cc2c(cc1NCC#Cc1nc3c(N[C@@H]4CCN(C)C[C@@H]4F)cccn3c1SC(F)(F)F)C(=O)NC2 [Example 151] | < 10 nM | ≥ 10 °C | > 90% | < 750 nM | < 750 nM | 5000 to 8000 nM | – | – | < 750 nM

Second part, led by results:

Kd ([1]; SPR, kinetic KD, p53 Y220C) | ΔTm at 10 µM [2] | Emax (p53 Y220C) | AC50 (p53 Y220C) | IC50 (H1299 p53 Y220C) | IC50 (H1299 p53 R273H) | ΔTm at 100 µM [2] | Kd [1] | SMILES | IC50 (NUGC3 p53 Y220C)
< 10 nM | ≥ 10 °C | > 90% | < 750 nM | < 750 nM | 5000 to 8000 nM | – | – | CNC(=O)c1ccc(OC)c(NCC#Cc2cc3c(N[C@@H]4CCNC[C@@H]4F)cccn3c2SC(F)(F)F)c1 [Example 125, 3-{[3-(8-{[(3S,4R)-3-fluoropiperidin-4-yl]amino}-3-[(trifluoromethyl)sulfanyl]indolizin-2-yl)prop-2-yn-1-yl]amino}-4-methoxy-N-methylbenzamide] | < 750 nM
< 10 nM | ≥ 10 °C | > 90% | < 750 nM | < 750 nM | 8000 to 10000 nM | – | – | CNC(=O)c1ccc(NCC#Cc2cc3c(N[C@@H]4CCN(C)C[C@@H]4F)cccn3c2SC(F)F)c(OC)c1 [Example 135, 4-[(3-{3-[(difluoromethyl)sulfanyl]-8-{[(3S,4R)-3-fluoro-1-methylpiperidin-4-yl]amino}indolizin-2-yl}prop-2-yn-1-yl)amino]-3-methoxy-N-methylbenzamide] | < 750 nM
< 10 nM | ≥ 10 °C | 80 to 90% | < 750 nM | < 750 nM | 8000 to 10000 nM | ≥ 10 °C | – | COc1ccc(C(N)=O)cc1NCC#Cc1nc2c(N[C@@H]3CCN(C)C[C@@H]3F)cccn2c1SC(F)(F)F [Example 138] | < 750 nM
< 10 nM | ≥ 10 °C | > 90% | < 750 nM | < 750 nM | 5000 to 8000 nM | – | – | CNC(=O)c1ccc(NCC#Cc2cn3c(N[C@@H]4CCN(C)C[C@@H]4F)cccc3c2SC(F)(F)F)c(OC)c1 [Example 139, 4-{[3-(5-{[(3S,4R)-3-fluoro-1-methylpiperidin-4-yl]amino}-1-[(trifluoromethyl)sulfanyl]indolizin-2-yl)prop-2-yn-1-yl]amino}-3-methoxy-N-methylbenzamide] | < 750 nM
< 10 nM | ≥ 10 °C | 80 to 90% | < 750 nM | < 750 nM | < 5000 nM | – | – | COc1ncc(C(N)=O)cc1NCC#Cc1nc2c(N[C@@H]3CCN(C)C[C@@H]3F)cccn2c1SC(F)(F)F [Example 140] | < 750 nM
< 10 nM | ≥ 10 °C | < 70% | 750 to 1500 nM | 750 to 1500 nM | ≥ 10000 nM | ≥ 10 °C | – | CNC(=O)c1cncc(NCC#Cc2nc3c(N[C@@H]4CCN(C)C[C@@H]4F)cccn3c2SC(F)(F)F)c1 [Example 142] | < 750 nM
– | 5 to 10 °C | 80 to 90% | 750 to 1500 nM | 1500 to 3000 nM | ≥ 10000 nM | ≥ 10 °C | < 10 nM | COc1ccc(C(=O)N2CCC2)cc1NCC#Cc1nc2c(N[C@@H]3CCN(C)C[C@@H]3F)cccn2c1SC(F)(F)F [Example 144] | 750 to 1500 nM
< 10 nM | ≥ 10 °C | 80 to 90% | < 750 nM | < 750 nM | ≥ 10000 nM | ≥ 10 °C | – | COc1ccc(C(=O)NC(C)C)cc1NCC#Cc1nc2c(N[C@@H]3CCN(C)C[C@@H]3F)cccn2c1SC(F)(F)F [Example 145] | < 750 nM
< 10 nM | ≥ 10 °C | 70 to 80% | < 750 nM | < 750 nM | ≥ 10000 nM | ≥ 10 °C | – | CNC(=O)c1ccc(OC)c(NCC#Cc2nc3c(N[C@@H]4CNC[C@@H]4F)cccn3c2SC(F)(F)F)c1 [Example 152] | < 750 nM
